Test results as given in US10344019B2 (priority 2010, dated 2019).

What was measured:
Format in all cases: cell-based
[1] = test system: HCV 2a Rluc cells (NS5A chimeric genotype 2a JFH-1 replicon with genotype 2a J6 strain NS5A gene, M31 present); test: HCV replicon reporter assay, genotype 2a J6 (M31 present); settings: Hepatitis C virus, read-out: 2a J6
Method in brief: (§1)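 Replicons used: genotype 1b Con1, 1a H77, 2a JFH-1, and a 2a JFH-1 chimera with J6-strain NS5A (M31 present), all dicistronic.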

[2] = test system: Q30R in genotype 1a NS5A, 1a Rluc replicon transfected into Huh-7 cured-51 cells; test: HCV replicon assay, resistance mutant 1a Q30R; settings: Hepatitis C virus, Huh-7, read-out: 1a Q30R
Description: Evaluation of cell-based anti-HCV activity: Antiviral potency (EC50) was determined using a Renilla luciferase (RLuc)-based HCV replicon reporter assay. To perform the assay for genotype 1 and 2a JFH-1, HCV 1b RLuc cells (harboring a dicistronic genotype 1b Con1 replicon that encodes a RLuc reporter), or HCV 1a RLuc cells (harboring a dicistronic genotype 1a H77 replicon that encodes a RLuc reporter), or HCV 2a JFH-1 Rluc cells (harboring a dicistronic genotype 2a JFH-1 replicon that encodes a RLuc reporter) were dispensed into 384-well plates. To perform the assay for genotype 2a (with M31 present) or 2b, HCV 2a Rluc or 2b Rluc cells (both with M31 present) harboring a dicistronic NS5A chimeric genotype 2a JFH-1 replicon that encodes a RLuc reporter and either genotype 2a J6 strain NS5A gene or genotype 2b MD2b-1 NS5A gene (based on Los Alamos HCV database isolates, both with M31 present) respectively, were dispensed into 384-well plates. To perform the assay for genotype 3 and 4, HCV 3a RLuc or 4a Rluc cells harboring a dicistronic NS5A chimeric genotype 1b Con1 replicon that encodes a RLuc reporter and either a consensus genotype 3a NS5A gene or genotype 4a NS5A gene (based on Los Alamos HCV database isolates) respectively, were dispensed into 384-well plates. Compounds were re-suspended in DMSO at a concentration of 10 mM and serially diluted in DMSO either manually or using an automated pipeting instrument. Serially diluted compounds were mixed with cell culture media and added to the seeded cells. […] 72 hours later, cells were lysed and Renilla luciferase activity quantified as recommended by the manufacturer (Promega-Madison, Wis.). Non-linear regression was performed to calculate EC50 values.
To determine the antiviral potency (EC50) against resistance mutants, resistance mutations, including M28T, Q30R, Q30H, L31M, and Y93C in genotype 1a NS5A and Y93H in genotype 1b NS5A, were introduced individually into either 1a Rluc or 1b Rluc replicons described above by site directed mutagenesis. Replicon RNA of each resistant mutant was transfected into Huh-7 cured-51 cells and antiviral potency was determined on these transfected cells as described above.

[3] = test system: HCV 2b Rluc cells (NS5A chimeric genotype 2a JFH-1 replicon with genotype 2b MD2b-1 NS5A gene, M31 present); test: microbe, parasite or virus in culture; settings: Hepatitis C virus, read-out: 2b
Method in brief: (§2)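 Replicon cells stably carrying the listed RLuc-encoding dicistronic replicons were seeded and treated with DMSO serial dilutions of compound (10 mM stocks) diluted into culture medium. After 72 h, cells were lysed and Renilla luciferase activity measured. EC50 was derived by non-linear regression.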

[4] = test system: HCV 3a RLuc cells (NS5A chimeric genotype 1b Con1 replicon with consensus genotype 3a NS5A gene); test: microbe, parasite or virus in culture; settings: Hepatitis C virus, read-out: 3a, genotype 3a NS5A chimeric replicon
Method in brief: as §2

[5] = test system: HCV 1a RLuc cells (dicistronic genotype 1a H77 replicon, RLuc reporter); test: microbe, parasite or virus in culture; settings: Hepatitis C virus, genotype 1a H77 RLuc replicon; read-out: 1a
Method in brief: as §1

[6] = test system: HCV 4a Rluc cells (NS5A chimeric genotype 1b Con1 replicon with genotype 4a NS5A gene); test: microbe, parasite or virus in culture; settings: Hepatitis C virus, read-out: 4a
Method in brief: as §2

[7] = test system: HCV 2a JFH-1 Rluc cells (dicistronic genotype 2a JFH-1 replicon, RLuc reporter); test: microbe, parasite or virus in culture; settings: Hepatitis C virus, genotype 2a JFH-1 RLuc replicon; read-out: 2a JFH
Method in brief: as §1

[8] = test system: HCV 1b RLuc cells (dicistronic genotype 1b Con1 replicon, RLuc reporter); test: microbe, parasite or virus in culture; settings: Hepatitis C virus, read-out: 1b (nM)
Method in brief: as §1

Compound	EC50 [1]	EC50 [2]	EC50 [3]	EC50 [4]	EC50 [5]	EC50 [6]	EC50 [7]	EC50 [8]
COC[C@H]1C[C@@H](c2nc3c([nH]2)-c2cc4c(cc2CC3)-c2ccc(-c3cnc([C@@H]5CCCN5C(=O)[C@@H](NC(=O)OC)C(C)C)[nH]3)cc2CO4)N(C(=O)[C@H](NC(=O)OC)c2ccccc2)C1 [Example 587]	1 to 999 pM	1 to 999 pM	1 to 999 pM	1 to 990 pM	1 to 999 pM	1 to 990 pM	1 to 999 pM	–
COC[C@@H]1C[C@@H](c2nc3ccc4cc5c(cc4c3[nH]2)OCc2cc(-c3cnc([C@@H]4CCCN4C(=O)[C@@H](NC(=O)OC)C(C)C)[nH]3)ccc2-5)N(C(=O)[C@H](NC(=O)OC)c2ccccc2)C1 [Example 589]	1 to 999 pM	1 to 999 pM	1 to 999 pM	1 to 990 pM	1 to 999 pM	1 to 990 pM	1 to 999 pM	–
COC(=O)N[C@H](C(=O)N1CCC[C@H]1c1ncc(-c2ccc3c(c2)COc2cc4c(ccc5nc([C@@H]6C[C@H](C)CN6C(=O)[C@@H](NC(=O)OC)C(C)C)[nH]c54)cc2-3)[nH]1)C(C)C [Example 526]	1 to 999 pM	1 to 999 pM	1 to 999 pM	1 to 990 pM	1 to 999 pM	1 to 990 pM	1 to 999 pM	–
CC#Cc1cc2nc([C@@H]3CCCN3C(=O)[C@@H](NC(=O)OC)C(C)C)[nH]c2c2ccc(-c3ccc4c(ccc5nc([C@@H]6C[C@H](COC)CN6C(=O)[C@H](N)c6ccccc6)[nH]c54)c3)cc12 [Example 593]	1 to 999 pM	1000 to 44000 pM	1000 to 44000 pM	1 to 990 pM	1 to 999 pM	–	1 to 999 pM	0.014 nM
COC(=O)N[C@H](C(=O)N1C[C@@H](COC(F)F)C[C@H]1c1nc2ccc3cc4c(cc3c2[nH]1)OCc1cc(-c2cnc([C@@H]3CCCN3C(=O)[C@H](NC(=O)OC)c3ccccc3)[nH]2)ccc1-4)C(C)C [Example 558]	1 to 999 pM	1 to 999 pM	1 to 999 pM	–	1 to 999 pM	1 to 990 pM	1 to 999 pM	0.014 nM
COC(=O)N[C@H](C(=O)N1[C@@H](C)CC[C@H]1c1nc2ccc3cc4c(cc3c2[nH]1)OCc1cc(-c2cnc([C@@H]3C[C@H](C)CN3C(=O)[C@H](NC(=O)OC)c3ccccc3)[nH]2)ccc1-4)C(C)C [Example 609]	1 to 999 pM	1 to 999 pM	1 to 999 pM	1 to 990 pM	1 to 999 pM	–	1 to 999 pM	0.005 nM
COC[C@H]1C[C@@H](c2ncc(-c3ccc4c(c3)COc3cc5c(ccc6nc([C@@H]7CCCN7C(=O)[C@H](NC(=O)OC)c7ccccc7)[nH]c65)cc3-4)[nH]2)N(C(=O)[C@@H](NC(=O)OC)C(C)C)C1 [Example 625]	1 to 999 pM	1 to 999 pM	1 to 999 pM	1 to 990 pM	1 to 999 pM	–	1 to 999 pM	0.031 nM
COC[C@H]1C[C@@H](c2ncc(-c3ccc4c(c3)COc3cc5c(ccc6nc([C@@H]7CC[C@H](C)N7C(=O)[C@@H](NC(=O)OC)C(C)C)[nH]c65)cc3-4)[nH]2)N(C(=O)[C@@H](NC(=O)OC)[C@@H](C)OC)C1 [Example 610]	1 to 999 pM	1 to 999 pM	1 to 999 pM	1 to 990 pM	1 to 999 pM	–	1 to 999 pM	0.013 nM
COC[C@H]1C[C@@H](c2ncc(-c3ccc4c(c3)COc3cc5c(ccc6nc([C@@H]7C[C@H](C)CN7C(=O)[C@@H](NC(=O)OC)C(C)C)[nH]c65)cc3-4)[nH]2)N(C(=O)[C@H](NC(=O)OC)c2ccccc2)C1 [Example 622]	1 to 999 pM	1 to 999 pM	1 to 999 pM	1 to 990 pM	1 to 999 pM	–	1 to 999 pM	0.016 nM
COC[C@H]1C[C@@H](c2ncc(-c3ccc4c(c3)COc3cc5c(ccc6nc([C@@H]7C[C@@H]8C[C@@H]8N7C(=O)[C@@H](NC(=O)OC)C(C)C)[nH]c65)cc3-4)[nH]2)N(C(=O)[C@H](NC(=O)OC)c2ccccc2)C1 [Example 636]	1 to 999 pM	1 to 999 pM	1 to 999 pM	1 to 990 pM	1 to 999 pM	–	1 to 999 pM	0.011 nM
